pEC50: −log10 of the molar value. Values after ≈ are worked out from the molar mass of the structure shown. Read-outs that look alike come from different tables or passages of the source. One block for each compound: values may come before it.
Experiments:
[1] = tested on: antithrombin III; test: Antithrombin III; type: in vivo, human; conditions: AT III activity; GCC4401C, SAD study; Linear model
[2] = tested on: activated partial thromboplastin time; test: Activated partial thromboplastin time; type: in vivo, human; conditions: for EC50: Homo sapiens
[3] = for CL renal: male, human, in vivo, GCC-4401C, plasma and urine PK modeling analysis from the SAD study
[4] = target: coagulation factor X (Homo sapiens, UniProt P00742); test: Coagulation factor X; type: in vivo
[5] = target: factor Xa (Homo sapiens, UniProt P00742); test: Antifactor Xa; type: in vivo
[6] = target: factor Xa (Bos taurus, UniProt P00743); test: LMWH assay; type: in vivo, human; conditions: GCC4401C, SAD study
[7] = tested on: prothrombin time; test: Prothrombin time; type: in vivo, human; conditions: for EC50: Homo sapiens; for comparable dose of rivaroxaban in PT: Monte-Carlo simulation
[8] = target: factor X (Homo sapiens, UniProt P00742); test: Factor X chromogenic activity assay; type: in vivo; conditions: for comparable dose of rivaroxaban in FXCAA: Monte-Carlo simulation
[9] = oral, cited from earlier work
[10] = GCC4401C oral, fasted, SAD and S&MAD studies, final model
[11] = GCC4401C oral, fasted, SAD and S&MAD studies, variance (CV %)
[12] = GCC-4401C oral, fasted, base model
[13] = Coagulation factor X, GCC4401C, SAD and S&MAD studies, variance (CV %)
[14] = Coagulation factor X, GCC4401C, variance (CV %)
[15] = Antifactor Xa activity, GCC4401C, S&MAD study, Sigmoid Emax model
[16] = Antifactor Xa activity, GCC4401C, S&MAD study, variance (CV %)
[17] = PT (INR), GCC4401C, SAD and S&MAD studies, Sigmoid Emax model
[18] = Prothrombin time (seconds), GCC4401C, Sigmoid Emax model
[19] = FXCAA, GCC4401C, S&MAD study, variance (CV %)
[20] = Activated PT (seconds), Rivaroxaban, S&MAD, Sigmoid Emax model
[21] = rivaroxaban 20 mg, fed, S&MAD study
[22] = rivaroxaban 20 mg, fed, S&MAD study, variance (CV %)
[23] = Coagulation factor X, Rivaroxaban, S&MAD study, Sigmoid Emax model
[24] = Coagulation factor X, Rivaroxaban, S&MAD study, variance (CV %)
[25] = PT (INR), Rivaroxaban, S&MAD study, Simple Emax model
[26] = FXCAA, Rivaroxaban, S&MAD study, variance (CV %)

Chain of factor X (P00742 235-488 limits assumed): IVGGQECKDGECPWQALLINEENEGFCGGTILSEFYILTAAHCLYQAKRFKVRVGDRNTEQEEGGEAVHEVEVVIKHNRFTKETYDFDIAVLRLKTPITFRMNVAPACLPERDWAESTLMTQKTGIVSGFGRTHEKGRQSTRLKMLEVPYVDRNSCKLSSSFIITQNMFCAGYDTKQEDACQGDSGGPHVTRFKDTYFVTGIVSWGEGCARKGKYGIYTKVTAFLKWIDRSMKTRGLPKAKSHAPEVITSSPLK
Chain of factor X (P00742 41-179 limits assumed): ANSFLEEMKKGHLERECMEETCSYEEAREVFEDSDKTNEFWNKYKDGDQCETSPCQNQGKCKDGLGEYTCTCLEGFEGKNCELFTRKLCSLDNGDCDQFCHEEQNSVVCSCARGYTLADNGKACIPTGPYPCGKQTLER
Chain of coagulation factor X (P00742 235-488 limits assumed): as the sequence (P00742 235-488 limits assumed) above
Chain of coagulation factor X (P00742 41-179 limits assumed): as the sequence (P00742 41-179 limits assumed) above
Chain of factor Xa (Homo sapiens, UniProt P00742) (P00742 235-488 limits assumed): as the sequence (P00742 235-488 limits assumed) above
Chain of factor Xa (Homo sapiens, UniProt P00742) (P00742 41-179 limits assumed): as the sequence (P00742 41-179 limits assumed) above

EC50 [2]: 0.573 µg/mL
ALAG1 (delay in absorption) [3, 10]: 0.20 h
D1 (duration of zero-order absorption) [3, 10]: 0.395 h
IIV + IOVALAG1 (CV, %) [3, 11]: 0.14 (38.8)
IIV + IOVD1 (CV, %) [3, 11]: 1.49 (185.4)
IIVCLNR (CV, %) [3, 11]: 0.046 (21.7)
IIVCLR (CV, %) [3, 11]: 0.052 (23.2)
IIVKa (CV, %) [3, 11]: 0.97 (128.0)
IIVVc (CV, %) [3, 11]: 0.09 (30.5)
IIVVp (CV, %) [3, 11]: 0.11 (33.8)
Θ for WT and Vc (power covariate effect of body weight on Vc) ([3]; GCC4401C, Typical Vc=Vc(75)*(WT/75)^Θ): 0.67
Vc [3, 12]: 55.6 L
Vp [3, 12]: 25.9 L
average steady-state volume of distribution [3, 12]: 81.5 L
total clearance ([3]; GCC-4401C oral, fasted, final model): 12.0 L/h
CL renal ([3]; nonrenal clearance (CLNR)): 200 mL/min
CL renal ([3]; renal clearance (CLR)): 13.7 mL/min
pEC50 [4]: 5.25
Emax ([4]; Coagulation factor X, GCC4401C, SAD and S&MAD studies, Sigmoid Emax model): 81.2%
IIVEC50 (%) [4, 13]: 0.98 (129.4)
IIVEmax (CV, %) [4, 13]: 0.10 (33.1)
γSAD (shape parameter) ([4]; Coagulation factor X, GCC4401C, SAD study, Sigmoid Emax model): 1.07
γSAD/MAD (shape parameter) ([4]; Coagulation factor X, GCC4401C, SAD/MAD study, Sigmoid Emax model): 0.60
IIVγ (CV, %) [4, 14]: 0.24 (51.8)
IOVγ (CV, %) [4, 14]: 0.09 (30.1)
pEC50 [5]: 5.87
Emax [5, 15]: 3.24 IU/mL
γ (shape parameter) [5, 15]: 1.25
IIV + IOVEC50 (%) [5, 16]: 0.005 (7.2)
IIVEmax (CV, %) [5, 16]: 0.04 (20.8)
IIVγ (CV, %) [5, 16]: 0.02 (13.4)
comparable dose of rivaroxaban in AFX assay ([5]; Monte-Carlo simulation, GCC-4401C 10 mg): ~20 mg
comparable dose of rivaroxaban in AFX ([5]; Monte-Carlo simulation, GCC-4401C 20 mg): ~40 mg
Emax ([6]; Simple Emax model): 3.83
IIVEC50 (CV, %) ([6]; variance (CV %)): 0.29 (57.4)
EC50 ([7]; read-out: EC50, SAD, PT (INR), GCC4401C, SAD study, Sigmoid Emax model): 0.426 µg/mL
EC50 ([7]; read-out: EC50, SAD, Prothrombin time (seconds), GCC4401C, SAD study, Sigmoid Emax model): 0.563 µg/mL
EC50 ([7]; read-out: EC50, SAD/MAD, PT (INR), GCC4401C, SAD/MAD study, Sigmoid Emax model): 1.35 µg/mL
EC50 ([7]; read-out: EC50, SAD/MAD, Prothrombin time (seconds), GCC4401C, SAD/MAD study, Sigmoid Emax model): 1.45 µg/mL
pEC50 [8]: 6.09
γ (shape parameter) ([8]; FXCAA, GCC4401C, S&MAD study, Sigmoid Emax model): 0.90
IIVEmax (CV, %) [8, 19]: 0.01 (11.3)
IIVγ (CV, %) [8, 19]: 0.06 (25.7)
Emax ([8]; Factor X chromogenic activity assay, GCC4401C, S&MAD study, Sigmoid Emax model): 99.8%
comparable dose of rivaroxaban in FXCAA ([8]; GCC-4401C 10 mg): 30 to 40 mg
comparable dose of rivaroxaban in FXCAA ([8]; GCC-4401C 20 mg): ~80 mg
SMILES: CS(=O)(=O)O.O=C(NC[C@H]1CN(c2ccc(N3CCNC=N3)cc2)C(=O)O1)c1ccc(Cl)s1 [GCC‐4401C, (S)−5‐chloro‐N‐((3‐(4‐(5,6‐dihydro‐1,2,4‐triazin‐1(4H)‐yl)phenyl)−2‐oxooxazolidin‐5‐yl)methyl)thiophene‐2‐carboxamide methanesulfonate]
SLOPE [1]: 0.006
Emax, SAD ([2]; Activated PT (seconds), GCC4401C, SAD study, Sigmoid Emax model): 16.9 s
Emax, SAD/MAD ([2]; Activated PT (seconds), GCC4401C, SAD/MAD study, Sigmoid Emax model): 20.4 s
γ (shape parameter) ([2]; Activated PT (seconds), GCC4401C, Sigmoid Emax model): 1.37
comparable dose of rivaroxaban in PT ([7]; GCC-4401C 10 mg): 30 to 40 mg
comparable dose of rivaroxaban in PT ([7]; GCC-4401C 20 mg): ~40 mg
Emax [7, 17]: 1.32 INR
γ (shape parameter) [7, 17]: 1.23
Emax [7, 18]: 15.2 s
γ (shape parameter) [7, 18]: 1.16

EC50 [2]: 0.135 µg/mL (≈ 0.31 µM)
D1 (duration of zero-order absorption) [3, 21]: 1.07 h
γ (shape parameter in Weibull-type absorption model) [3, 21]: 1.34
IIVCL (%) [3, 22]: 0.015 (12.3)
IIVKa (CV, %) [3, 22]: 3.3 (503.1)
IIVVc (CV, %) [3, 22]: 0.01 (10.0)
IIVVp (CV, %) [3, 22]: 0.06 (25.7)
Emax [4, 23]: 42.9%
γ (shape parameter) [4, 23]: 0.90
IIVEC50 (CV, %) [4, 24]: 0.33 (62.1)
IOVEC50 (CV, %) [4, 24]: 0.25 (52.9)
SLOPE ([5]; Antifactor Xa activity, Rivaroxaban, S&MAD study, Linear model): 0.005
IIVSLOPE (CV, %) ([5]; Antifactor Xa activity, Rivaroxaban, S&MAD study, variance (CV %)): 0.01 (10.8)
EC50 [7, 25]: 0.434 µg/mL (≈ 0.996 µM)
Emax ([8]; FXCAA, Rivaroxaban, S&MAD study, Simple Emax model): 112.0%
IIVEC50 (CV, %) [8, 26]: 0.07 (26.9)
IOVEC50 (CV, %) [8, 26]: 0.01 (8.2)
SMILES: O=C(NC[C@H]1CN(c2ccc(N3CCOCC3=O)cc2)C(=O)O1)c1ccc(Cl)s1 [rivaroxaban, reference compound]
Emax [2, 20]: 12.4 s
γ (shape parameter) [2, 20]: 0.94
increase of Cmax with food ([9]; >10 mg, with food vs fasting): 76%
increase of mean area under concentration time curve with food ([9]; >10 mg, with food vs fasting): 39%
bioavailability ([9]; independent of food up to 10 mg): 80–100%
Emax [7, 25]: 0.71 INR
Emax ([7]; Prothrombin time (seconds), Rivaroxaban, S&MAD study, Simple Emax model): 6.86 s
